Assay results: patent publication US12581252B2, “Substituted pyrrolo[3,4-b]pyridines as PI3K-α inhibitors” (Relay Therapeutics, Inc., priority 2020, dated 2026)

How the values were obtained:
H1047R PIK3CA enzyme = H1047R PIK3CA enzyme (Homo sapiens, UniProt P42336, H1047R); assay: ADP-Glo Biochemical PIK3CA Kinase Assay
cells = settings: Homo sapiens, MCF-10A, read-out: MCF10A IC50

H1047R PIK3CA enzyme, sequence (P42336 whole entry H1047R): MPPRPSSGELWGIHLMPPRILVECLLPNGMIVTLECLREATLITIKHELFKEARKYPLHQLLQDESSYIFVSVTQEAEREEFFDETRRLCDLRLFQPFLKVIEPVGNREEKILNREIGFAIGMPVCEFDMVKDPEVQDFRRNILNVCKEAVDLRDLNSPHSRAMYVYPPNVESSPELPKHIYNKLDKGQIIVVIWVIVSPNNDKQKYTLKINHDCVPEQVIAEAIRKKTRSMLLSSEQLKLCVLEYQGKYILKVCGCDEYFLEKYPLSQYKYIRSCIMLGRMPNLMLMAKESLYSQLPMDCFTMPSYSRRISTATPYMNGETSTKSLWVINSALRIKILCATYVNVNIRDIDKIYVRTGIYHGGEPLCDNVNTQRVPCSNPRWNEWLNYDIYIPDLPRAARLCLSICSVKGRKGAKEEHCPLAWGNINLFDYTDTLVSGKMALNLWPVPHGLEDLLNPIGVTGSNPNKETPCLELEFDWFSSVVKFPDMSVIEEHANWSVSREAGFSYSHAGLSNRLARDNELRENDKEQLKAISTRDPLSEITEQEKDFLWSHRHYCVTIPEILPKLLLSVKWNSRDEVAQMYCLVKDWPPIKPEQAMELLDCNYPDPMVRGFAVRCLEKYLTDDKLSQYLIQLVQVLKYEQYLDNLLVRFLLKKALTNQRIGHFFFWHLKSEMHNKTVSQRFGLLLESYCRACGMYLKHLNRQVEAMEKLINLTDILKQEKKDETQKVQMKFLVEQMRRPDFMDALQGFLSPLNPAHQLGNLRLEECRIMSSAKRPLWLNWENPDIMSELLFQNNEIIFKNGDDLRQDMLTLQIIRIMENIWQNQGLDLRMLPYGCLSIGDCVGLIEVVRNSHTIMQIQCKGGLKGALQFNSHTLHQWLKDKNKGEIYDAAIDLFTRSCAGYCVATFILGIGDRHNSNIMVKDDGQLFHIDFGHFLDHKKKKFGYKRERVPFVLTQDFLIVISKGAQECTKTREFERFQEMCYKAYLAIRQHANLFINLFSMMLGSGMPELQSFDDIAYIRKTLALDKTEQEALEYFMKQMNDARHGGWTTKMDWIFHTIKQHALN
H1047R PIK3CA enzyme, sequence (P27986 whole entry partner): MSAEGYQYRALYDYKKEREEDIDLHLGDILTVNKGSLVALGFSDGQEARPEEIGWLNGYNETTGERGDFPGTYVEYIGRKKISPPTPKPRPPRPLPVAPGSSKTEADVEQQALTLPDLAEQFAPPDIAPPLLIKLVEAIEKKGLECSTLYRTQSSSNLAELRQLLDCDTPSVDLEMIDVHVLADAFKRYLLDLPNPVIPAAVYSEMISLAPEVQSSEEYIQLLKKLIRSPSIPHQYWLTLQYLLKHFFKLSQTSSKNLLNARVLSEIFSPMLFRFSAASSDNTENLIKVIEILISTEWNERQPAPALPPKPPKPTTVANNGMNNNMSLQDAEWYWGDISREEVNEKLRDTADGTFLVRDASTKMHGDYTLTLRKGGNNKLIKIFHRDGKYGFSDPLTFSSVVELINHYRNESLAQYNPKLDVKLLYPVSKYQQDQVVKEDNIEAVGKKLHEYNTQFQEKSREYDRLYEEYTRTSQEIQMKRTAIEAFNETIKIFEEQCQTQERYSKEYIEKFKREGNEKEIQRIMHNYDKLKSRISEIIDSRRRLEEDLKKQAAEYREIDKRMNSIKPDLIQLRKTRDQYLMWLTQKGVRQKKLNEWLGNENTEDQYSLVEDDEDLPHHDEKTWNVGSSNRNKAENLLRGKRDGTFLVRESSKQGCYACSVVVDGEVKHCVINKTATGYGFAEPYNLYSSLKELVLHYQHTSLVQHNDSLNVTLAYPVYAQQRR

SMILES: O=C1N[C@@H](c2cc(F)ccc2Cl)c2c(NC(=O)N3C[C@@H](C(F)F)c4ccccc43)cccc21 (single isomer, unassigned) [Compound I-2334]
- IC50 (H1047R PIK3CA enzyme): ≤ 0.1 µM
- IC50 (cells): 1 to 5 µM

SMILES: Cc1nc2ncc(-c3cc(NC(=O)c4cc(F)cc(C(F)(F)F)c4)c4c(c3)C(=O)NC4c3cc(F)ccc3Cl)cn2n1 (stereo not drawn) [Compound I-1124]
- IC50 (H1047R PIK3CA enzyme): ≤ 0.1 µM
- IC50 (cells): < 1 µM

SMILES: N#Cc1cc(NC(=O)N2C[C@@](O)(C(F)(F)F)c3cc(F)ccc32)c2c(c1)C(=O)N[C@@H]2c1cc(F)ccc1Cl (single isomer, unassigned) [Compound I-2560]
- IC50 (H1047R PIK3CA enzyme): ≤ 0.1 µM
- IC50 (cells): < 1 µM

SMILES: CC(O)c1cc(NC(=O)N2CC(O)c3ccccc32)c2c(c1)C(=O)NC2c1cc(F)ccc1Cl (stereo not drawn) [Compound I-2288]
- IC50 (H1047R PIK3CA enzyme): ≤ 0.1 µM
- IC50 (cells): 10 to 36 µM

SMILES: COCc1cc(NC(=O)N2C[C@@](O)(C(F)(F)F)c3cc(F)ccc32)c2c(c1)C(=O)N[C@@H]2c1cc(F)ccc1Cl (single isomer, unassigned) [Compound I-2541]
- IC50 (H1047R PIK3CA enzyme): ≤ 0.1 µM
- IC50 (cells): < 1 µM

SMILES: Cn1cc(-c2cc(NC(=O)c3cc(F)cc(C(F)(F)F)c3)c3c(c2)C(=O)NC3c2cc(F)ccc2C(F)F)cn1 (stereo not drawn) [Compound I-220]
- IC50 (H1047R PIK3CA enzyme): ≤ 0.1 µM
- IC50 (cells): < 1 µM

SMILES: O=C(Nc1cc(-c2cnc3ccnn3c2)cc2c1C(c1cc(F)ccc1Cl)NC2=O)c1cc(F)cc(C(F)(F)F)c1 (stereo not drawn) [Compound I-1047]
- IC50 (H1047R PIK3CA enzyme): ≤ 0.1 µM
- IC50 (cells): < 1 µM

SMILES: Cc1cnccc1-c1cc(NC(=O)c2cc(F)cc(C(F)(F)F)c2)c2c(c1)C(=O)N[C@H]2c1cc(F)ccc1Cl (stereo in doubt) [Compound I-1010]
- IC50 (H1047R PIK3CA enzyme): ≤ 0.1 µM
- IC50 (cells): < 1 µM

SMILES: O=C(Nc1cc(-n2cccn2)cc2c1[C@H](c1cc(F)ccc1Cl)NC2=O)c1cc(F)cc(C(F)(F)F)c1 [Compound I-1069]
- IC50 (H1047R PIK3CA enzyme): ≤ 0.1 µM
- IC50 (cells): < 1 µM

SMILES: Cc1ccccc1C1NC(=O)c2cccc(NC(=O)c3csc4cnccc34)c21 (stereo not drawn) [Compound I-46]
- IC50 (H1047R PIK3CA enzyme): 0.1 to 0.5 µM
- IC50 (cells): 10 to 36 µM

SMILES: Cc1nc(Nc2cc(NC(=O)c3cc(F)cc(C(F)(F)F)c3)c3c(c2)C(=O)NC3c2cc(F)ccc2Cl)oc1C (stereo not drawn) [Compound I-966]
- IC50 (H1047R PIK3CA enzyme): ≤ 0.1 µM
- IC50 (cells): < 1 µM

SMILES: O=C1NC(c2cc(F)ccc2Cl)c2c(NC(=O)N3CCc4ccccc43)cccc21 (stereo not drawn) [Compound I-2479]
- IC50 (H1047R PIK3CA enzyme): ≤ 0.1 µM
- IC50 (cells): 1 to 5 µM

SMILES: O=C1N[C@@H](c2cc(F)ccc2Cl)c2c(NC(=O)N3C[C@H](O)c4c(F)cccc43)cccc21 (single isomer, unassigned) [Compound I-2142]
- IC50 (H1047R PIK3CA enzyme): ≤ 0.1 µM
- IC50 (cells): < 1 µM

SMILES: O=C1N[C@H](c2cc(F)ccc2Cl)c2c(NC(=O)N3C[C@](O)(C(F)(F)F)c4cc(F)ccc43)ccc(Cl)c21 (single isomer, unassigned) [Compound I-2618]
- IC50 (H1047R PIK3CA enzyme): ≤ 0.1 µM
- IC50 (cells): < 1 µM

SMILES: O=C1N[C@@H](c2cc(F)ccc2Cl)c2c(NC(=O)N3C[C@H](O)c4cc(F)ccc43)cc(-n3cccn3)cc21 (single isomer, unassigned) [Compound I-2364]
- IC50 (H1047R PIK3CA enzyme): ≤ 0.1 µM
- IC50 (cells): 1 to 5 µM

SMILES: O=C(Nc1cccc2c1C(c1cc(F)ccc1Cl)NC2=O)c1csc2c1CCCC2 (stereo not drawn) [Compound I-2239]
- IC50 (H1047R PIK3CA enzyme): ≤ 0.1 µM
- IC50 (cells): 1 to 5 µM

SMILES: O=C1N[C@@H](c2cc(F)ccc2Cl)c2c(NC(=O)N3C[C@@](O)(C(F)(F)F)c4ccccc43)cc(Cl)cc21 (single isomer, unassigned) [Compound I-2509]
- IC50 (H1047R PIK3CA enzyme): ≤ 0.1 µM
- IC50 (cells): < 1 µM

SMILES: [2H]C1([2H])N(C(=O)Nc2cccc3c2[C@H](c2cc(F)ccc2Cl)NC3=O)c2ccc(F)cc2[C@]1(O)C(F)(F)F (single isomer, unassigned) [Compound I-2595]
- IC50 (H1047R PIK3CA enzyme): ≤ 0.1 µM
- IC50 (cells): < 1 µM

SMILES: O=C(Nc1cc(-n2ccccc2=O)cc2c1C(c1cc(F)ccc1Cl)NC2=O)c1cc(F)cc(C(F)(F)F)c1 (stereo not drawn) [Compound I-2192]
- IC50 (H1047R PIK3CA enzyme): ≤ 0.1 µM
- IC50 (cells): 1 to 5 µM

SMILES: N#CN1CC(c2cc(NC(=O)c3cc(F)cc(C(F)(F)F)c3)c3c(c2)C(=O)NC3c2cc(F)ccc2Cl)C1 (stereo not drawn) [Compound I-1157]
- IC50 (H1047R PIK3CA enzyme): ≤ 0.1 µM
- IC50 (cells): 5 to 10 µM

SMILES: O=C(Nc1cc(-c2cn3ccnc3cn2)cc2c1C(c1cc(F)ccc1Cl)NC2=O)c1cc(F)cc(C(F)(F)F)c1 (stereo not drawn) [Compound I-946]
- IC50 (H1047R PIK3CA enzyme): ≤ 0.1 µM
- IC50 (cells): < 1 µM

SMILES: O=C(Nc1cc(-c2cnn(C3CC3)c2)cc2c1[C@H](c1cc(F)ccc1Cl)NC2=O)c1cc(F)cc(C(F)(F)F)c1 (single isomer, unassigned) [Compound I-1022]
- IC50 (H1047R PIK3CA enzyme): ≤ 0.1 µM
- IC50 (cells): < 1 µM

SMILES: O=C(Nc1cc(-c2ccnc3ccccc23)cc2c1C(c1cc(F)ccc1Cl)NC2=O)c1cc(F)cc(C(F)(F)F)c1 (stereo not drawn) [Compound I-934]
- IC50 (H1047R PIK3CA enzyme): ≤ 0.1 µM
- IC50 (cells): < 1 µM

SMILES: CNC(=O)c1cc(NC(=O)c2nsc3ccccc23)c2c(c1)C(=O)N[C@@H]2c1ccccc1C [Compound I-164]
- IC50 (H1047R PIK3CA enzyme): 1 to 10 µM
- IC50 (cells): 10 to 36 µM

SMILES: C[C@@]1(C(=O)Nc2cc(Br)cc3c2[C@H](c2cc(F)ccc2Cl)NC3=O)CCC[C@H](C(F)(F)F)C1 (single isomer, unassigned) [Compound I-2262]
- IC50 (H1047R PIK3CA enzyme): 0.1 to 0.5 µM
- IC50 (cells): 1 to 5 µM

SMILES: O=C1NC(c2ccccc2C(F)F)c2c(NC(=O)c3nsc4ccccc34)cccc21 (stereo not drawn) [Compound I-122]
- IC50 (H1047R PIK3CA enzyme): ≤ 0.1 µM
- IC50 (cells): 1 to 5 µM

SMILES: O=C1N[C@H](c2cc(F)ccc2Cl)c2c(NC(=O)N3C[C@H](O)c4cc(F)ccc43)cc(-c3ccc(=O)n(C(F)F)c3)cc21 (single isomer, unassigned) [Compound I-2448]
- IC50 (H1047R PIK3CA enzyme): ≤ 0.1 µM
- IC50 (cells): 1 to 5 µM

SMILES: CNc1cc(NC(=O)N2C[C@](O)(C(F)(F)F)c3cc(F)ccc32)c2c(n1)C(=O)N[C@@H]2c1cc(F)ccc1Cl (single isomer, unassigned) [Compound I-2644]
- IC50 (H1047R PIK3CA enzyme): ≤ 0.1 µM
- IC50 (cells): < 1 µM

SMILES: N#CC1(C(=O)Nc2cc(NC(=O)c3cc(F)cc(C(F)(F)F)c3)c3c(c2)C(=O)NC3c2cc(F)ccc2Cl)CNC1 (stereo not drawn) [Compound I-2149]
- IC50 (H1047R PIK3CA enzyme): ≤ 0.1 µM
- IC50 (cells): 10 to 36 µM

SMILES: O=C(Nc1cc(-c2cnc3ncnn3c2)cc2c1C(c1cc(F)ccc1Cl)NC2=O)c1cc(F)cc(C(F)(F)F)c1 (stereo not drawn) [Compound I-969]
- IC50 (H1047R PIK3CA enzyme): ≤ 0.1 µM
- IC50 (cells): < 1 µM

SMILES: C#Cc1ccccc1-c1cc(NC(=O)c2cc(F)cc(C(F)(F)F)c2)c2c(c1)C(=O)NC2c1cc(F)ccc1Cl (stereo not drawn) [Compound I-1163]
- IC50 (H1047R PIK3CA enzyme): ≤ 0.1 µM
- IC50 (cells): < 1 µM

SMILES: O=C1N[C@@H](c2cc(F)ccc2Cl)c2c(NC(=O)N3C[C@](O)(C(F)(F)F)c4cc(F)ccc43)cc(F)cc21 (single isomer, unassigned) [Compound I-2630]
- IC50 (H1047R PIK3CA enzyme): 1 to 10 µM
- IC50 (cells): < 1 µM

SMILES: Cn1cccc(-c2cc(NC(=O)c3cc(F)cc(C(F)(F)F)c3)c3c(c2)C(=O)NC3c2cc(F)ccc2Cl)c1=O (stereo not drawn) [Compound I-901]
- IC50 (H1047R PIK3CA enzyme): 0.1 to 0.5 µM
- IC50 (cells): 1 to 5 µM

SMILES: O=C(Nc1cc(-n2cncn2)cc2c1C(c1cc(F)ccc1Cl)NC2=O)c1cc(F)cc(C(F)(F)F)c1 (stereo not drawn) [Compound I-1086]
- IC50 (H1047R PIK3CA enzyme): ≤ 0.1 µM
- IC50 (cells): < 1 µM

SMILES: CC1(Cc2cc(NC(=O)N3C[C@](O)(C(F)(F)F)c4cc(F)ccc43)c3c(c2)C(=O)N[C@@H]3c2cc(F)ccc2Cl)COC1 (single isomer, unassigned) [Compound I-2657]
- IC50 (H1047R PIK3CA enzyme): ≤ 0.1 µM
- IC50 (cells): < 1 µM

SMILES: Cn1nccc1-c1cc(NC(=O)c2cc(F)cc(C(F)(F)F)c2)c2c(c1)C(=O)NC2c1cc(F)ccc1Cl (stereo not drawn) [Compound I-906]
- IC50 (H1047R PIK3CA enzyme): ≤ 0.1 µM
- IC50 (cells): < 1 µM
